Experimental data from the Kinase Knowledgebase extract (Sharma et al. 2016).
Blank lines part the entries; values can stand above or below the compound they belong to.

What was measured:
EGFR [1] = target: EGFR (UniProt P00533)
EGFR (human) [2] = target: EGFR (human) (UniProt P00533); conditions: mkn45, concentration not given here
EGFR [3] = target: EGFR (UniProt P00533); remark: listed apart in the source
EGFR [4] = target: EGFR (UniProt P00533); remark: listed apart in the source
EGFR (human) [5] = target: EGFR (human) (UniProt P00533); conditions: f/l herc cells
EGFR (human) [6] = target: EGFR (human) (UniProt P00533)
EGFR (human) [7] = target: EGFR (human) (UniProt P00533); conditions: a431
EGFR (human) [8] = target: EGFR (human) (UniProt P00533); conditions: a431; remark: listed apart in the source
EGFR (human) [9] = target: EGFR (human) (UniProt P00533); conditions: a431; remark: listed apart in the source
CDK2;CDK1 = CDK2;CDK1 (UniProt P24941); experiment: Cell-Based Assay
MAP2K1;MAPK14 (human) [10] = target: MAP2K1;MAPK14 (human) (UniProt Q16539); experiment: Inhibition of HT1197 Cell Proliferation by MTT Assay
Chain of MAP2K1;MAPK14 (human) (Q16539 whole entry, looked up): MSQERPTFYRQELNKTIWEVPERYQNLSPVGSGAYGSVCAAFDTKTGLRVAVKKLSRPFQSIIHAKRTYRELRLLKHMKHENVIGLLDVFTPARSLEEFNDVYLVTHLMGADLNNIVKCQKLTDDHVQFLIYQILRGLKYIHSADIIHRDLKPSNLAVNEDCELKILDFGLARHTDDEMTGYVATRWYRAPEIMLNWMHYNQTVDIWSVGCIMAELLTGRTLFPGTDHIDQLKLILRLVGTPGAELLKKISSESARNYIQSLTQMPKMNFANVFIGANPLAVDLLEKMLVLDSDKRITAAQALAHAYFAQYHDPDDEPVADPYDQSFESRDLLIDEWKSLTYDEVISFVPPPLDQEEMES

MAP2K1;MAPK14 (human) [11] = target: MAP2K1;MAPK14 (human) (UniProt Q16539); experiment: Inhibition of BXPC3 Cell Proliferation by MTT Assay; conditions: bxpc-3 pancreatic
MAP2K1;MAPK14 (human) [12] = target: MAP2K1;MAPK14 (human) (UniProt Q16539); experiment: Inhibition of LnCAP Cell Proliferation by MTT Assay
EGFR (murine) [13] = target: EGFR (murine) (UniProt P00533); conditions: f/l-herc
Chain of EGFR (murine) (P00533 whole entry, looked up): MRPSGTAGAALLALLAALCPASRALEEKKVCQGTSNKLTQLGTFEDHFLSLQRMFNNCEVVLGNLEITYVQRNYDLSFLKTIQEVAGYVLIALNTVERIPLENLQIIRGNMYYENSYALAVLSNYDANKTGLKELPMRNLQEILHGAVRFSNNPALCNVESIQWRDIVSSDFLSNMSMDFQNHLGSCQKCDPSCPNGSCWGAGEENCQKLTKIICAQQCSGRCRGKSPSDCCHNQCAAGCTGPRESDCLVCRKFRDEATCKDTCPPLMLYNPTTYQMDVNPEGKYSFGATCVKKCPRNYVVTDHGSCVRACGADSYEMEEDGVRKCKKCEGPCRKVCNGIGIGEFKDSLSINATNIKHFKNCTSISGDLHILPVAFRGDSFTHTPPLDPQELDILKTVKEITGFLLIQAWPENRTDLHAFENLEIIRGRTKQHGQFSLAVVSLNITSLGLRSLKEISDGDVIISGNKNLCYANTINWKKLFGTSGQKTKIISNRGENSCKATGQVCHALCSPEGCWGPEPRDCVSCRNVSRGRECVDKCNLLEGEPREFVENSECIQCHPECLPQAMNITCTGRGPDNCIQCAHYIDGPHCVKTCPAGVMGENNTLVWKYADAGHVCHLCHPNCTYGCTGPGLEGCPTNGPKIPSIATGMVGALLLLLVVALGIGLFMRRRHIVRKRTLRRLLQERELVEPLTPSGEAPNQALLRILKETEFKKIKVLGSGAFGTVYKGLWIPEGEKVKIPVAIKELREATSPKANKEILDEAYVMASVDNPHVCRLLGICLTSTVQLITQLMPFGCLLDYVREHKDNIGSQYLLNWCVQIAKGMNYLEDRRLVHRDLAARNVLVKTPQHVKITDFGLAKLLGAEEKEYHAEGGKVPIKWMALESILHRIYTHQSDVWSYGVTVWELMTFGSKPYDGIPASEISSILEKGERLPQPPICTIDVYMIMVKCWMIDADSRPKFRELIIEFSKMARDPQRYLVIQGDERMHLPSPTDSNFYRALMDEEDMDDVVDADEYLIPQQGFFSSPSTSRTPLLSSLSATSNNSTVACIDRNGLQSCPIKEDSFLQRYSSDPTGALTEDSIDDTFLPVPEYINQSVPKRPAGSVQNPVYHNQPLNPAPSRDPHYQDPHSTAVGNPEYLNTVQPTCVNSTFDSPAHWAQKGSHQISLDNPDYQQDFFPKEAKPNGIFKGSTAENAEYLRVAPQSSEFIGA

EGFR (murine) [14] = target: EGFR (murine) (UniProt P00533); conditions: f/l-herc; remark: listed apart in the source
EGFR [15] = target: EGFR (UniProt P00533); remark: listed apart in the source
EGFR [16] = target: EGFR (UniProt P00533); remark: listed apart in the source
EGFR [17] = target: EGFR (UniProt P00533); remark: listed apart in the source
MAPK14 [18] = target: MAPK14 (UniProt Q16539); experiment: p38 Binding Asssy
Chain of MAPK14 (Q16539 whole entry, looked up): as the sequence (Q16539 whole entry, looked up) above

EGFR (mouse) = EGFR (mouse) (UniProt P00533); conditions: swiss 3t3 fibroblast
EGFR (human) [19] = target: EGFR (human) (UniProt P00533); conditions: a431; remark: listed apart in the source
EGFR [20] = target: EGFR (UniProt P00533); remark: listed apart in the source
MAPK14 [21] = target: MAPK14 (UniProt Q16539); experiment: Inhibition of MAPK Activity
PIK3CA = PIK3CA (UniProt P42336); experiment: PIK3CA Inhibition
Chain of PIK3CA (P42336 whole entry, looked up): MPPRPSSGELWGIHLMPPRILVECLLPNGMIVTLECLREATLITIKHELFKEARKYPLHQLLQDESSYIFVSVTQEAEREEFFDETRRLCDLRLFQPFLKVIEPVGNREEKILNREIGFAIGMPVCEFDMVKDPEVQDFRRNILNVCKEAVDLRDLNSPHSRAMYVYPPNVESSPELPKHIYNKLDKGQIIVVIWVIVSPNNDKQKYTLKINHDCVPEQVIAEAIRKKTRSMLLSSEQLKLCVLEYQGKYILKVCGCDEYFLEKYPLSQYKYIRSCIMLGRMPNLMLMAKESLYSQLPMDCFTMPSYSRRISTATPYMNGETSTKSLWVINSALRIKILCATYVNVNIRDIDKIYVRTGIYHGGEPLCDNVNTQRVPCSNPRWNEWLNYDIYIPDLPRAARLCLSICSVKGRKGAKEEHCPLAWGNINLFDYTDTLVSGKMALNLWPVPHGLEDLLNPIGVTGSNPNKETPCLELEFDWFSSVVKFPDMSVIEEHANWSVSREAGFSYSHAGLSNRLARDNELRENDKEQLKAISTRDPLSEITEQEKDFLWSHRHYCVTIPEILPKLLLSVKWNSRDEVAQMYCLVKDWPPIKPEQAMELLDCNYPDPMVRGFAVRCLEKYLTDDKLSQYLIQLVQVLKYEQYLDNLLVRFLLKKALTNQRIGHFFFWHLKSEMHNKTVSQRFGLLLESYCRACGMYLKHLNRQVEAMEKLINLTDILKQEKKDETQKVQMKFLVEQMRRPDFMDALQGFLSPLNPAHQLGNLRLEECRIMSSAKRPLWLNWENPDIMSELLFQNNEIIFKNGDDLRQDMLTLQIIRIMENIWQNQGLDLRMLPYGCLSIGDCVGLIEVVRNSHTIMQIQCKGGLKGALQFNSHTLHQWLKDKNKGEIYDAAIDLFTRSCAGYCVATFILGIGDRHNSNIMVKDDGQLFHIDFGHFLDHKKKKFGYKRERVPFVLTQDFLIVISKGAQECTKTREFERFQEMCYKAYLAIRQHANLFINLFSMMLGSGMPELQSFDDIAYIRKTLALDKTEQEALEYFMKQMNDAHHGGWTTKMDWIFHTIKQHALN

EGFR (murine) [22] = target: EGFR (murine) (UniProt P00533); conditions: nih3t3
MAPK14 [23] = target: MAPK14 (UniProt Q16539); experiment: p38-alpha 2 Inhibition
EGFR (human) [24] = target: EGFR (human) (UniProt P00533); conditions: A431
MAP2K1;MAPK14 (human) [25] = target: MAP2K1;MAPK14 (human) (UniProt Q16539); experiment: Inhibition of CaCO Cell Proliferation by MTT Assay; conditions: caco-2
MAP2K1;MAPK14 (human) [26] = target: MAP2K1;MAPK14 (human) (UniProt Q16539); experiment: Inhibition of LOVO Cell Proliferation by MTT Assay
MAPK14 [27] = target: MAPK14 (UniProt Q16539); experiment: p38 Inhibition
MAPK14 [28] = target: MAPK14 (UniProt Q16539); experiment: In Vitro p38 Inhibition
ROCK2 = ROCK2 (UniProt O75116); experiment: Inhibition of COS cell Derived Rho kinase (ROCKII)
EGFR (human) [29] = target: EGFR (human) (UniProt P00533); conditions: a431; remark: listed apart in the source
EGFR [30] = target: EGFR (UniProt P00533); remark: listed apart in the source

Chain of EGFR (human) (P00533 whole entry, looked up): as the sequence (P00533 whole entry, looked up) above
Chain of EGFR (P00533 whole entry, looked up): as above

- IC50 (EGFR [1]): > 500 µM
SMILES: O=C(c1c[nH]c2ccccc12)N1CCC(Cc2ccccc2)CC1

SMILES: Nc1c2ccccc2nc2c1ccc1ncccc12
- cell viability (EGFR (human) [2]): > 90%

- IC50 (EGFR [3]): > 20 µM
SMILES: Cc1cc(C(=O)N2CCOCC2)[nH]c1/C=C1/C(=O)Nc2ncnc(N3CCCCC3)c21

- IC50 (EGFR [3]): 0.377 µM
SMILES: Cc1cc(C(=O)N2CCOCC2)[nH]c1/C=C1/C(=O)Nc2ncnc(Nc3cccc4c3CCC4)c21

- IC50 (EGFR [4]): 0.05 µM
SMILES: Cc1cc(C)c(N(C)C)c(C)c1Cc1nc(-c2ccncc2)c(-c2ccc(Cl)cc2)[nH]1

- IC50 (EGFR (human) [5]): 0.017 µM
SMILES: CCOC(=O)CN1CCN(C/C=C/C(=O)Nc2cc3c(Nc4ccc(F)c(Cl)c4)ncnc3cc2OCCC2CC2)CC1

- IC50 (EGFR (human) [6]): 0.25 µM
SMILES: CCn1c(=O)c(-c2c(Cl)cccc2Cl)cc2cnc(Nc3ccncc3)nc21

- IC50 (EGFR (human) [7]): 0.8 µM
- IC50 (EGFR (human) [8]): > 1.56 µM
SMILES: COc1cc2ncnc(N[C@H](CO)c3ccccc3)c2cc1OC

- IC50 (EGFR (human) [9]): 37.5 µM
SMILES: C[C@H](NC(=O)c1ccc(S(=O)(=O)Oc2ccc(/C=C/[N+](=O)[O-])cc2)cc1)C(=O)N[C@@H](C)C(=O)OC(C)(C)C

SMILES: Nc1cc(OCC2CCCCC2)nc(N)n1
- GI50 (CDK2;CDK1): > 100 µM

- IC50 (MAP2K1;MAPK14 (human) [10]): 0.05 µM
- IC50 (MAP2K1;MAPK14 (human) [11]): 0.029 µM
- IC50 (MAP2K1;MAPK14 (human) [12]): 0.04 µM
SMILES: COc1cc2c(Nc3ccc(Sc4nccn4C)c(Cl)c3)c(C#N)cnc2cc1OCCCN1CCOCC1

- IC50 (EGFR (murine) [13]): > 10 µM
- IC50 (EGFR (murine) [14]): 0.138 µM
SMILES: CN1C2CC[C@]1(Nc1ncc3ncnc(Nc4ccc(F)c(Cl)c4)c3n1)CC(O)C2 (some centres not stated)

- IC50 (EGFR [15]): 0.078 µM
SMILES: Cn1c(=O)c(-c2c(Cl)cccc2Cl)cc2cnc(Nc3ccccc3)nc21

- IC50 (EGFR [16]): 0.001 µM
SMILES: Cc1cccc(Nc2cc(Nc3cccc(N(C)C)c3OCCO)ncn2)c1

SMILES: N#C/C(=C\c1ccc(O)c(O)c1)C(=O)NCCCc1ccccc1
- IC50 (EGFR [17]): 0.7 µM

- IC50 (MAPK14 [18]): 0.64 µM
SMILES: [N-]=[N+]=Nc1ccc(-c2nc(-c3cccc(I)c3)c(-c3ccncc3)[nH]2)cc1

SMILES: Cc1ccc2[nH]c(SSc3[nH]c4ccc(C)cc4c3CCC(=O)O)c(CCC(=O)O)c2c1
- IC50 (EGFR (mouse)): > 50 µM

SMILES: N#C/C(=C\c1ccc(O)c(O)c1)C(N)=O
- Ki (EGFR (human) [19]): 3.5 µM
- IC50 (EGFR [20]): > 1000 µM

- IC50 (MAPK14 [21]): 30 µM
SMILES: Cn1cnc2c(NCc3ccccc3)nc(NCCO)nc21

- IC50 (PIK3CA): 38.4 µM
SMILES: CCCCCCCCCCCCCCCC(=O)OC[C@H](COP(=O)(O)O[C@H]1[C@H](O)[C@@H](O)[C@H](O)C[C@H]1O)OC(=O)CCCCCCCCCCCCCCC

- IC50 (EGFR [20]): 5 µM
SMILES: O=CN/C=C/c1cc(O)ccc1O

- IC50 (EGFR (murine) [22]): > 100 µM
SMILES: NS(=O)(=O)c1ccc2c(c1)/C(=C/C1=CC3=C(CCCC3)C1)C(=O)N2

SMILES: NC(=O)c1ccccc1NC(=O)Nc1ccc(Cl)c(Cl)c1
- IC50 (MAPK14 [23]): 0.1 µM

- IC50 (EGFR [16]): 0.0005 µM
SMILES: Cn1ccc2cc3c(Nc4cccc(Br)c4)ncnc3cc21

- IC50 (EGFR (human) [24]): 0.009 µM
SMILES: Cc1nnc(-c2ccc3ncnc(Nc4ccc(OCc5cc(F)cc(F)c5)cc4)c3c2)o1

- IC50 (EGFR (murine) [22]): > 100 µM
SMILES: CN(C)S(=O)(=O)c1ccc2c(c1)/C(=C/C1=CC3=C(CCCC3)C1)C(=O)N2

- IC50 (PIK3CA): 0.8 µM
SMILES: CCCCCCCCCCCCCCCCCCOC[C@H](COP(=O)(O)O[C@H]1[C@H](O)[C@@H](O)CC[C@H]1O)OC

- IC50 (MAP2K1;MAPK14 (human) [25]): > 1 µM
- IC50 (MAP2K1;MAPK14 (human) [26]): 0.036 µM
SMILES: COc1cc2c(Nc3ccc(Sc4nccn4C)c(Cl)c3)c(C#N)cnc2cc1OCCC[N+]1([O-])CCSCC1

- IC50 (MAPK14 [27]): > 30 µM
- IC50 (MAPK14 [28]): > 30 µM
SMILES: O=C(CNS(=O)(=O)c1ccc(CNC(=O)c2ccc(Cl)cc2)s1)NCCNc1ncc(C(F)(F)F)cc1Cl

SMILES: Cn1cnc2c(OCC3CCCCC3)nc(N)nc21
- GI50 (CDK2;CDK1): > 100 µM

- IC50 (ROCK2): 0.47 µM
SMILES: N=C(N)NC[C@H]1CC[C@H](C(=O)NC2=CC=NC3NN=CC23)CC1 (some centres not stated)

- Ki (EGFR (human) [29]): 0.000168 µM
SMILES: Oc1ccc2c(Nc3cccc(Br)c3)ncnc2c1

- IC50 (EGFR [30]): 6 pM
SMILES: Brc1cccc(Nc2ncnc3cc4c(cc23)OCCO4)c1

- IC50 (EGFR [1]): > 500 µM
SMILES: O=C(c1cccc2[nH]ccc12)N1CCC(Cc2ccccc2)CC1

- IC50 (EGFR (human) [6]): 0.308 µM
SMILES: Cn1c(=O)c(-c2c(Cl)cccc2Cl)cc2cnc(Nc3cccc(Br)c3)nc21
